Test results published in paper PMC6749521, “The Effect of Flavonoid Aglycones on the CYP1A2, CYP2A6, CYP2C8 and CYP2D6 Enzymes Activity” (Molecules, 2019).

What was measured:
CYP1A2 [1] = target: T1, CYP1A2 (Homo sapiens, UniProt P05177); assay: CYP1A2 enzyme activity, phenacetin O-deethylation (MDI, TDI, DI assays), recombinant baculosomes
T1 sequence (P05177 1-516): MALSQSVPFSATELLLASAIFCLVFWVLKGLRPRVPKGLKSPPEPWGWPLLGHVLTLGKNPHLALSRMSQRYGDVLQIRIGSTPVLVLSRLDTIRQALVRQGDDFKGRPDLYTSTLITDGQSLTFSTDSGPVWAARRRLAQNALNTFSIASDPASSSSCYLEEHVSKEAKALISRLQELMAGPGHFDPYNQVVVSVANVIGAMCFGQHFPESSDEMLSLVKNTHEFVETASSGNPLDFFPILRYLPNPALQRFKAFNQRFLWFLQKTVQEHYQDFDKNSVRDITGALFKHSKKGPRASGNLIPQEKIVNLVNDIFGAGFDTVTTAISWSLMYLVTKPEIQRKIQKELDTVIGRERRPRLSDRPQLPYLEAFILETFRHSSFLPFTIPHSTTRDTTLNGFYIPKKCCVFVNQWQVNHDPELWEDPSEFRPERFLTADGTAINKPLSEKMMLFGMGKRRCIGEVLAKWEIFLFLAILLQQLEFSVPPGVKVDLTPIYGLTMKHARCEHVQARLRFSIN
Experimental: (§1) The recombinant baculosomes with hyperexpressed cytochromes P450 (1A2, 2A6, 2C8, and 2D6) and coexpressed NADPH cytochrome P450 reductase and cytochrome b5 were used as a source of enzyme. Baculosomes were commercially obtained from Thermo Fisher Scientific (Waltham, MA, USA), and all other chemicals from Sigma-Aldrich if not otherwise indicated. A 1.0 M solution phosphate buffer of pH 7.4 was prepared in house. NADPH generating system was prepared of 0.1 M glucose-6-phosphate, 10 mg mL^−1 NADP^+, and 1000 IU mL^−1 glucose-6-phosphate dehydrogenase in ratio 100:50:2 (v/v/v).
Phenacetine O-deethylation was used as a marker reaction for monitoring CYP1A2 enzyme activity (Figure 2). Incubations of 100 µL were conducted at the temperature of 37 °C. The pH of the incubation mixture was set at 7.4 using a potassium phosphate buffer (final concentration 50 mM). The total amount of CYP1A2 enzyme was 5 pmol, and the final concentration of substrate was 150 µM. Residual activity was determined by incubating the flavonoid (1 µM) with phenacetine as a substrate for 15 min, with or without preincubation, depending of the type of inhibition assay. Reactions were started by the addition of 15 µL of NADPH generating system, while the reactions were stopped by the addition of 1 mL 1% formic acid in acetonitrile. After centrifugation (10 min, 1900× g), the clear solution was transferred to a vial for HPLC analysis.
HPLC analysis was performed on Agilent 1100 instrument (Santa Clara, CA, USA) coupled with a diode array detector (DAD) on Luna C18 column (4.6 × 150 mm, 3 μm). The gradient method was used for separation. Mobile phase A consisted of water, acetonitrile, and glacial acetic acid in the volume ratio of 90:10:0.1, while mobile phase B contained the same solvents in the ratio 10:90:0.1. The following gradient timetable was used (t/min, %B): (0, 0), (2, 0), (13, 55), (14, 0), (20, 0). The flow rate was 1 mL/min, and chromatograms were recorded at 254 nm. Volume of incubation injected to the column was 15 µL. […] The amount of generated product (acetaminophen) was determined as the area under the curve based on the calibration curve of the standard.
(§2) Three types of experiments were conducted to determine metabolism dependent inhibition, time dependent inhibition, and direct inhibition of CYP1A2, CYP2A6, CYP2C8, and CYP2D6 enzymes.
(§3) To determine metabolism dependent inhibition (MDI assay), the flavonoid was first preincubated with the enzyme with the addition of the generating system for 30 min, after which the marker substrate was added to determine residual enzyme activity (as described above for each enzyme).
(§4) If metabolism dependent inhibition was determined, time dependent inhibition and direct inhibition were tested. Time dependent inhibition (TDI assay) was assessed by preincubating the flavonoid and enzyme, without the generating system, after which residual activity was determined by adding the NADPH generating system along with the substrate (as described above for each enzyme).
(§5) The direct inhibition assay (DI assay) was conducted without preincubation, i.e., the NADPH generating system was added to the incubation mixture containing flavonoid and substrate following the experimental set-up described above for each individual cytochrome P450 enzyme.
(§6) Pure time dependent inhibitors require time to interact with the enzyme. Thus, TDI inhibitors will show a reduction of enzyme activity in assays with preincubations, i.e., the MDI and TDI assays, but not in the DI assay (no preincubation). […] DI inhibitors will reduce enzyme activity in all three assays (MDI, TDI, and DI).
(§7) All incubations were conducted in triplicate. The results are expressed as the residual activity of the enzyme, i.e., the percentage of product generated in incubation with the addition of flavonoid in ratio to the control without flavonoid.

CYP2A6 = target: T2, CYP2A6 (Homo sapiens, UniProt P11509); assay: CYP2A6 enzyme activity, coumarin 7-hydroxylation (MDI, TDI, DI assays), recombinant baculosomes
T2 sequence (P11509 1-494): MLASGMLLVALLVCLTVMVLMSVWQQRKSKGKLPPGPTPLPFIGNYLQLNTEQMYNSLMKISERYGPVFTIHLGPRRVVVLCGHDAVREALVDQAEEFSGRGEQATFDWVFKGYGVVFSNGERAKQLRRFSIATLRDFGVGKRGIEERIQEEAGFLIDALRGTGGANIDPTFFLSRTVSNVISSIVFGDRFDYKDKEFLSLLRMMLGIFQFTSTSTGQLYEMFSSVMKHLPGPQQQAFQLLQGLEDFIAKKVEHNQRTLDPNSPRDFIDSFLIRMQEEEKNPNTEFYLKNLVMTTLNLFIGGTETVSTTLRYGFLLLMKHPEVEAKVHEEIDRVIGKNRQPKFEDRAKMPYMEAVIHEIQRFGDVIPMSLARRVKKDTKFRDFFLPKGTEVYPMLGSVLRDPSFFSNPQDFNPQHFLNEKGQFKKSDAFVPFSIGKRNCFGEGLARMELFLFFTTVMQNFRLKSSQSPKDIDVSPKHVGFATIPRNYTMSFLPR
Experimental: as §1
The aromatic hydroxylation of coumarin at the position 7 was used as a marker reaction for CYP2A6. The incubation conditions were the same as for CYP1A2 enzyme (vide supra) unless otherwise stated. The final concentration of coumarin was 10 µM, while the incubation time was extended to 30 min.
HPLC-DAD analysis was conducted on the same system as the CYP1A2 enzyme with the following modifications: The gradient timetable (t/min, %B) was (0, 20), (1.5, 20), (10, 70), (11, 20), (17, 20), and the detection wavelength was 330 nm. The retention time of the substrate (coumarin) was 7.5 min, while the product (7-hydroxycoumarin) was detected at 4.8 min. The amount of generated product was determined as the area under the curve based on the calibration curve of the standard.
as §2, §3, §4, §5, §6
as §7, with “flavonoid. The statistical significance was tested with Student’s t-test in the program R (The R Project for Statistical Computing, Vienna, Austria).” for “flavonoid.”

CYP1A2 [2] = test system: CYP1A2; parameters: method as in ref 28 (Chang et al.); conditions: ref 28 (Chang et al.); read-out: Inhibition constant, competitive inhibition of CYP1A2-mediated 7-ethoxyresorufin O-dealkylation; cited from earlier work
CYP3A4 = test system: CYP3A4; parameters: method as in PMID 30301254; conditions: statistical significance p < 0.1; cited from earlier work

With `COc1cc(-c2oc3cc(O)cc(O)c3c(=O)c2O)ccc1O` [isorhamnetin] as the compound, how does the “Inhibition of CYP1A2 activity” value (CYP1A2 [1]; 1 µM flavonoid) read?
The value was “inhibited”.

And the “Type of CYP1A2 inhibition” value (CYP1A2 [1]; concluded from MDI, TDI, DI assays at 1 µM)?
The value was “reversible inhibitor”.

And the activity at 15 min, 1 µM (CYP1A2 [1]; human, pH 7.4)?
The activity at 15 min, 1 µM was 8 ± 2%.

And the “Inhibition of CYP2A6 enzyme activity” value (CYP2A6; 1 µM flavonoid)?
The value was “inhibited”.

What about the inhibition at 30 min, 1 µM (CYP2A6; human, pH 7.4) of the same compound?
Its inhibition at 30 min, 1 µM is 16 ± 5%.

What about the Ki (CYP1A2 [2]) of the same compound?
Its Ki is 140 nM.

And the “Inhibition of CYP3A4 metabolic activity” value (CYP3A4)?
The value was “inhibition”.
